Measured values from US20070167377A1, “Inhibitors of glycinamide ribonucleotide transformylase” (priority 2002, published 2007).
“Also recorded” adds a separate entry of the source.

Tests used:
[1] = test system: CCRF-CEM/FPGS^− cell line; assay: Cytotoxic assay, FPGS deficient mutant; type: cell-based, human; conditions: lacks folylpolyglutamate synthase
Experimental: (§1) The cytotoxic activity of the compounds was measured using CCRF-CEM human leukemia cells, as described previously (Boger, D. L., et al., Bioorg. Med. Chem. 1997, 5, 1847-1852). Two mutant cell lines, CCRF-CEM/MTX and CCRF-CEM/FPGS^− were used to determine the dependence on the reduced folate active transport system and folylpolyglutamate synthetase (FPGS), respectively (Jansen, G., et al., Cancer Res. 1989, 49, 2455-2459).

human AICAR Tfase = human AICAR Tfase (Homo sapiens, UniProt P31939); assay: AICAR Tfase inhibition; type: biochemical
Experimental: (§2) GAR and AICAR Tfase inhibition studies were conducted as previously detailed^28 with the exception that the AICAR Tfase inhibition was conducted in the absence of 5 mM β-mercaptoethanol and screened with 10 nM enzyme, […] inhibitor and […] of cofactor. The DHFR inhibition study was conducted as previously detailed with 10 nM enzyme, […] H2F, […] NADPH and […] inhibitor.

[2] = target: thymidylate synthetase (TS) (Homo sapiens, UniProt P04818); assay: Thymidylate synthetase inhibition; type: biochemical
Chemical stability = type: physicochemical
E. coli GAR Tfase = E. coli GAR Tfase (Escherichia coli, UniProt P08179); assay: E. coli GAR Tfase inhibition; type: biochemical; conditions: E. coli GAR Tfase
Experimental: as §2
The Ki values for the folate analogues were measured as previously described (Boger, D. L., et al., Bioorg. Med. Chem. 1997, 5, 1817-1830). Briefly, each compound was dissolved in dimethyl sulfoxide (DMSO) and then diluted in assay buffer. […] Thus, all assays were conducted by mixing 10 μM 10-formyl-5,8-dideazafolate (fDDF), 20 μM inhibitor in total volume of 1 mL buffer (0.1 M HEPES, pH 7.5) at 26° C., and the reaction initiated by the addition of 76 nM E. coli or human GAR Tfase. The assay monitors the deformylation of fDDF (Δε=18.9 mM^−1 cm^−1 at 295 nm) resulting from the transfer of the formyl group to β-GAR.

Solubility = type: physicochemical; conditions: pH 7-8
CCRF-CEM/MTX cell line = assay: Cytotoxic assay, reduced folate carrier deficient mutant; type: cell-based, human; conditions: impaired reduced folate carrier
Experimental: as §1

CCRF-CEM cell line = assay: CCRF-CEM cytotoxic assay; type: cell-based, human; conditions: Homo sapiens
Experimental: as §1

DHFR = DHFR (Escherichia coli, UniProt P0ABQ4); assay: DHFR inhibition (101, 102); type: biochemical

Structure (SMILES): Nc1nc(N)c(CCCC(C(=O)C(F)(F)F)c2ccc(C(=O)N[C@@H](CCC(=O)O)C(=O)O)cc2)c(=O)[nH]1 (stereo partly drawn) [Compound 101, N-{4-[4-(2,4-Diamino-6-oxo-1,6-dihydropyrimidin-5-yl)-1-(2,2,2-trifluoroacetyl)butyl]benzoyl}-L-glutamic acid]
- cytotoxic activity (in words) [1]: lacked or lost activity
- inhibition of AICAR Tfase (in words) (human AICAR Tfase): inactivity; also recorded: inactive
- Ki (human AICAR Tfase; AICAR Tfase): > 100 µM
- inhibition of TS (in words) [2]: inactive
- Ki ([2]; TS): > 100 µM
- chemical stability (in words) (Chemical stability): chemically stable
- stability at pH 7-8 (Chemical stability; pH 7-8 buffers in the presence of air, 7 days): excellent; also recorded: no decomposition or reaction
- Ki (E. coli GAR Tfase): 1.9 µM
- solubility (Solubility): excellent
- cytotoxic activity (in words) (CCRF-CEM/MTX cell line): lost activity
- IC50 (CCRF-CEM cell line; in the presence of media purines): > 100 µM
- IC50 (CCRF-CEM cell line; purines (hypoxanthine) absent in the media): 0.016 µM
- inhibition of DHFR (in words) (DHFR): inactive
- Ki (DHFR; DHFR): > 100 µM
